Assay results taken from patent publication US20240294587A1, “K-RAS INHIBITOR” (THE JOHNS HOPKINS UNIVERSITY, priority 2021, published 2024).

What was measured:
[1] = test system: S473 AKT phosphorylation in HEK293 cells; test: Insulin-induced AKT phosphorylation in HEK293 cells; assay type: cell-based, human; conditions: peptide included during serum starvation and insulin stimulation (100 nM, 30 min), dose-dependent
Experimental: (§1) FIG. 3A is the amino acid sequence of the C-terminal region of K-Ras 4B—the helix α5 is highlighted and K-tetracosapeptide is underlined. Its predicted structure is shown on the right: positively- and negatively-charged surfaces are highlighted. FLAG-tagged GTP-bound K-Ras 4BG12V was incubated with GDP-loaded GFP-RhoA in the presence of K-tetracosapeptide (K-TC) or a scrambled peptide (50, 250, and 1250 nM). GFP-RhoA was pulled down using GFP-Trap beads. The pellets were analyzed by Western blotting using antibodies to FLAG and GFP (FIG. 3B) and quantified by band intensity (FIG. 3C). Bars are mean±SD (n=3). FIG. 3D is a schematic of the interaction of K-Ras 4B and RhoA in the presence of K-tetracosapeptide (K-TC) or a scrambled peptide. […] S473 AKT phosphorylation was analyzed by Western blotting (FIG. 3E) and band intensity of phospho-AKT relative to total AKT was quantified (FIG. 3F). Bars are mean±SD (n=3). After serum starvation, HEK293 cells were stimulated by insulin. […] S473 AKT phosphorylation was analyzed by Western blotting. (FIG. 3G) and band intensity was quantified (FIG. 3H). […]
Insulin-induced AKT phosphorylation in cells HEK293 cells and differentiated 3T3-L1 adipocytes were washed with serum-free DMEM and incubated with serum-free DMEM for 5 h. […] After clarification, cell lysates were analyzed by Western blotting.

[2] = test system: phosphorylation of AKT and TBC1D4 in 3T3-L1 adipocytes; test: Insulin-induced phosphorylation of AKT and TBC1D4 in 3T3-L1 adipocytes; assay type: cell-based, mouse; conditions: differentiated WT 3T3-L1 adipocytes; peptide pre-treatment 5 h, 100 nM insulin 30 min
Experimental: (§2) Differentiation into adipocytes was induced in WT 3T3-L1 cells and RhoA-KO 3T3-L1 cells expressing the indicated FLAG-RhoA proteins. Differentiation was analyzed Western blotting using anti-adiponectin antibodies (FIG. 6A) and band intensity was quantified (FIG. 6B). Bars are mean f SD (n=3). FIG. 6C is images of WT and RhoA-KO 3T3-L1 cells stained with oil red O before and after induction of the differentiation. FIG. 6D is images RhoA-KO 3T3-L1 cells expressing the indicated RhoA proteins and analyzed by oil red O stain after induction of differentiation. Differentiated WT 3T3-L1 adipocytes were stimulated with insulin after serum starvation in the presence of TAT-K-tetracosapeptide or a TAT peptide. Phosphorylation of AKT and TBC1D4 was analyzed by Western blotting (FIG. 6E) and quantification of band intensity (FIG. 6F). Bars are mean±SD (n=3). […]
(§3) Insulin-induced AKT phosphorylation and translocation of GLUT4 in 3T3-L1 adipocytes To examine AKT phosphorylation, differentiated WT 3T3-L1 adipocytes were incubated in serum-free DMEM medium for 5 h and stimulated with 100 nM insulin for 30 min. […] After clarification, cell lysates were analyzed by Western blotting using antibodies to AKT (Cell Signaling, 9272) and phospho-AKT (Serine 473) (Cell Signaling, 9271). […]

[3] = test system: transport of GLUT4-GFP to the plasma membrane in 3T3-L1 adipocytes; test: Insulin-induced translocation of GLUT4-GFP in 3T3-L1 adipocytes (confocal microscopy); assay type: cell-based, mouse; conditions: 3T3-L1 adipocytes carrying GLUT4-GFP; insulin 30 min after serum starvation
Experimental: as §2, §3

[4] = biological target: T1, interaction of purified GTP-K-Ras 4B and GDP-RhoA (Homo sapiens, UniProt P61586, G12V); test: In vitro protein-protein interaction assay (GFP-Trap pull-down, Western blotting); assay type: binding; conditions: peptide 50, 250 and 1250 nM, dose-dependent, FLAG-K-Ras 4BG12V pulled down with GFP-RhoA
T1 construct: made in house; host or cells: Dictyostelium cells
T1 sequence (P61586 whole entry G12V): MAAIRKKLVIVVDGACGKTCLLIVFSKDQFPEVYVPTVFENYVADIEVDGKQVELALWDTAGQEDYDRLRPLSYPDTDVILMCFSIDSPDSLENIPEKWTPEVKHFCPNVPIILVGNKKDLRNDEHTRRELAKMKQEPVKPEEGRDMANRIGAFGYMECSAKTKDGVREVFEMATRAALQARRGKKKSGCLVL
Experimental: as §1, with “(n=3).” for “(n=3). FIG. 3D is a schematic of the interaction of K-Ras 4B and RhoA in the presence of K-tetracosapeptide (K-TC) or a scrambled peptide.”, “3F).” for “3F). Bars are mean±SD (n=3). After serum starvation, HEK293 cells were stimulated by insulin.”
FLAG-tagged K-Ras4A and K-Ras 4B were eluted from anti-FLAG beads by incubation with 1 M arginine at room temperature for 5 min. Amounts of purified proteins were quantified on CBB-stained SDS-PAGE gels using ImageJ software with BSA as a standard. […] GFP-Trap beads were washed three times in 1 mM MgCl2, 100 mM potassium acetate, 25 mM HEPES (pH 7.4), and bound proteins were analyzed by Western blotting.

[5] = biological target: T2, KARATE (mTORC2 mixed with GTP-bound K-Ras 4BG12V and GDP-loaded RhoA) (Homo sapiens, UniProt P61586, G12V); test: In vitro reconstitution of mTORC2-mediated AKT phosphorylation; assay type: biochemical; conditions: S473 AKT phosphorylation by Western blotting; peptide 50, 250 and 1250 nM
T2 construct: made in house; host or cells: K-Ras 4B G12V and RhoA from Dictyostelium cells; AKT1 purchased (Sigma, 14-279)
T2 sequence (P61586 whole entry G12V): as above
Experimental: as §1, with “(n=3).” for “(n=3). FIG. 3D is a schematic of the interaction of K-Ras 4B and RhoA in the presence of K-tetracosapeptide (K-TC) or a scrambled peptide.”, “3F).” for “3F). Bars are mean±SD (n=3). After serum starvation, HEK293 cells were stimulated by insulin.”
In vitro reconstitution of mTORC2-mediated AKT phosphorylation The kinase activity of mTORC1 and mTORC2 was measured as described previously by Huang, Sarbassov dos, and Senoo (Methods Mol Biol 821, 75-86(2012), Methods Mol Biol 821, 59-74(2012), and Nat Cell Biol 21, 867-878(2019), respectively) with some modifications. […] AKT phosphorylation was detected by Western blotting with anti-phospho-AKT (serine 473) antibodies (Cell Signaling, 9271).

GRKKRRQRRRPQGVDDAFYTLVREIRKHKEKMSKDG [TAT-K-tetracosapeptide, K-tetracosapeptide fused to a cell-permeable TAT peptide]
effect on insulin-stimulated AKT phosphorylation in cells [1]: blocked in a dose-dependent manner
effect on insulin-induced phosphorylation of AKT [2]: blocked
effect on insulin-induced phosphorylation of TBC1D4 [2]: blocked
effect on insulin-induced transport of GLUT4-GFP to the plasma membrane [3]: strongly inhibited

GVDDAFYTLVREIRKHKEKMSKDG [K-tetracosapeptide, peptide of 24 amino acids corresponding to the helix α5 in K-Ras 4B]
effect on the interaction of purified GTP-K-Ras 4B and GDP-RhoA [4]: greatly decreased
effect on AKT phosphorylation in vitro [5]: blocked
